Data: ChEMBL document CHEMBL3390848, “Affinity selection and sequence-activity relationships of HIV-1 membrane fusion inhibitors directed at the drug-resistant variants” (Medchemcomm, 2010)
Residues, ends and D or L forms follow the SMILES beside them.

Assays:
[1] = tested on: Human immunodeficiency virus 1; assay: Thermal stability of HIV1 envelope glycoprotein gp41 His-tagged N-terminal heptad repeat N36-drug complex assessed as thermal unfolding transition state by measuring molar ellipticity at 4 to 90 degC by circular dichroic spectra analysis
[2] = tested on: Human immunodeficiency virus 1; assay: Antiviral activity against HIV1 NL4-3 harboring gp41 D36G mutant infected in human HeLa cells expressing CD4-LTR-beta-gal assessed as inhibition of viral replication after 48 hrs by MAGI assay; format: functional, organism-based
[3] = tested on: Human immunodeficiency virus 1; assay: Binding affinity to HIV1 His-tagged N-terminal heptad repeat of envelope glycoprotein gp41 assessed as recovery of N36-drug complex after 2 hrs by LC-MS analysis; set-up: concentration or dose not given beside the values

| Structure (SMILES) | Tm [1] [°C] | EC50 [2] [nM] | Activity [3] [%] |
| --- | --- | --- | --- |
| CC[C@H](C)[C@H](NC(=O)[C@H](CC(C)C)NC(=O)[C@H](CCC(=O)O)NC(=O)[C@H](CCC(=O)O)NC(=O)[C@@H](NC(=O)[C@H](CCCCN)NC(=O)[C@H](CCCCN)NC(=O)[C@@H](NC(=O)[C@H](Cc1ccc(O)cc1)NC(=O)[C@H](CCC(=O)O)NC(=O)[C@H](CCC(=O)O)NC(=O)[C@@H](NC(=O)[C@H](CCCCN)NC(=O)[C@H](CCCCN)NC(=O)[C@H](CC(=O)O)NC(=O)[C@H](Cc1c[nH]c2ccccc12)NC(=O)[C@H](CCC(=O)O)NC(=O)[C@H](CCC(=O)O)NC(=O)[C@H](Cc1c[nH]c2ccccc12)NC(C)=O)[C@@H](C)CC)[C@@H](C)O)[C@@H](C)CC)C(=O)N[C@@H](CCCCN)C(=O)N[C@@H](CCCCN)C(=O)N[C@@H](CO)C(=O)N[C@@H](CCC(=O)O)C(=O)N[C@@H](CCC(=O)O)C(=O)N[C@@H](CCCNC(=N)N)C(=O)N[C@@H](CCC(N)=O)C(=O)N[C@@H](CCCCN)C(=O)N[C@@H](CCCCN)C(=O)N[C@@H](CC(N)=O)C(=O)N[C@@H](CCC(=O)O)C(=O)N[C@@H](CCC(=O)O)C(=O)N[C@@H](CCC(=O)O)C(=O)N[C@@H](CC(C)C)C(=O)N[C@@H](CCCCN)C(=O)N[C@@H](CCCCN)C(N)=O (Ac-WEEWDKKIEEYTKKIEELIKKSEERQKKNEEELKK-NH2) | 71.5 | 2.5 | 7.6 |
| CC[C@H](C)[C@H](NC(=O)[C@H](CC(C)C)NC(=O)[C@H](CCC(=O)O)NC(=O)[C@H](CCC(=O)O)NC(=O)[C@@H](NC(=O)[C@H](CCCCN)NC(=O)[C@H](CCCCN)NC(=O)[C@@H](NC(=O)[C@H](Cc1ccc(O)cc1)NC(=O)[C@H](CCC(=O)O)NC(=O)[C@H](CCC(=O)O)NC(=O)[C@@H](NC(=O)[C@H](CCCCN)NC(=O)[C@H](CCCCN)NC(=O)[C@H](CC(=O)O)NC(=O)[C@H](Cc1c[nH]c2ccccc12)NC(=O)[C@H](CCC(=O)O)NC(=O)[C@H](CCC(=O)O)NC(=O)[C@H](Cc1c[nH]c2ccccc12)NC(C)=O)[C@@H](C)CC)[C@@H](C)O)[C@@H](C)CC)C(=O)N[C@@H](CCCCN)C(=O)N[C@@H](CCCCN)C(=O)N[C@@H](CO)C(=O)N[C@@H](CCC(=O)O)C(=O)N[C@@H](CCC(=O)O)C(=O)NCC(=O)N[C@@H](CCC(N)=O)C(=O)N[C@@H](CCCCN)C(=O)N[C@@H](CCCCN)C(=O)N[C@@H](CC(N)=O)C(=O)N[C@@H](CCC(=O)O)C(=O)N[C@@H](CCC(=O)O)C(=O)N[C@@H](CCC(=O)O)C(=O)N[C@@H](CC(C)C)C(=O)N[C@@H](CCCCN)C(=O)N[C@@H](CCCCN)C(N)=O (Ac-WEEWDKKIEEYTKKIEELIKKSEEGQKKNEEELKK-NH2) | 71 | 2.3 | 3.8 |
| CC[C@H](C)[C@H](NC(=O)[C@H](CC(C)C)NC(=O)[C@H](CCC(=O)O)NC(=O)[C@H](CCC(=O)O)NC(=O)[C@@H](NC(=O)[C@H](CCCCN)NC(=O)[C@H](CCCCN)NC(=O)[C@@H](NC(=O)[C@H](Cc1ccc(O)cc1)NC(=O)[C@H](CCC(=O)O)NC(=O)[C@H](CCC(=O)O)NC(=O)[C@@H](NC(=O)[C@H](CCCCN)NC(=O)[C@H](CCCCN)NC(=O)[C@H](CC(=O)O)NC(=O)[C@H](Cc1c[nH]c2ccccc12)NC(=O)[C@H](CCC(=O)O)NC(=O)[C@H](CCC(=O)O)NC(=O)[C@H](Cc1c[nH]c2ccccc12)NC(C)=O)[C@@H](C)CC)[C@@H](C)O)[C@@H](C)CC)C(=O)N[C@@H](CCCCN)C(=O)N[C@@H](CCCCN)C(=O)N[C@@H](CO)C(=O)N[C@@H](CCC(=O)O)C(=O)N[C@@H](CCC(=O)O)C(=O)N[C@@H](Cc1c[nH]c2ccccc12)C(=O)N[C@@H](CCC(N)=O)C(=O)N[C@@H](CCCCN)C(=O)N[C@@H](CCCCN)C(=O)N[C@@H](CC(N)=O)C(=O)N[C@@H](CCC(=O)O)C(=O)N[C@@H](CCC(=O)O)C(=O)N[C@@H](CCC(=O)O)C(=O)N[C@@H](CC(C)C)C(=O)N[C@@H](CCCCN)C(=O)N[C@@H](CCCCN)C(N)=O (Ac-WEEWDKKIEEYTKKIEELIKKSEEWQKKNEEELKK-NH2) | 77.1 | 1.7 | 7.1 |
| CC[C@H](C)[C@H](NC(=O)[C@H](CC(C)C)NC(=O)[C@H](CCC(=O)O)NC(=O)[C@H](CCC(=O)O)NC(=O)[C@@H](NC(=O)[C@H](CCCCN)NC(=O)[C@H](CCCCN)NC(=O)[C@@H](NC(=O)[C@H](Cc1ccc(O)cc1)NC(=O)[C@H](CCC(=O)O)NC(=O)[C@H](CCC(=O)O)NC(=O)[C@@H](NC(=O)[C@H](CCCCN)NC(=O)[C@H](CCCCN)NC(=O)[C@H](CC(=O)O)NC(=O)[C@H](Cc1c[nH]c2ccccc12)NC(=O)[C@H](CCC(=O)O)NC(=O)[C@H](CCC(=O)O)NC(=O)[C@H](Cc1c[nH]c2ccccc12)NC(C)=O)[C@@H](C)CC)[C@@H](C)O)[C@@H](C)CC)C(=O)N[C@@H](CCCCN)C(=O)N[C@@H](CCCCN)C(=O)N[C@@H](CO)C(=O)N[C@@H](CCC(=O)O)C(=O)N[C@@H](CCC(=O)O)C(=O)N[C@@H](CCCCN)C(=O)N[C@@H](CCC(N)=O)C(=O)N[C@@H](CCCCN)C(=O)N[C@@H](CCCCN)C(=O)N[C@@H](CC(N)=O)C(=O)N[C@@H](CCC(=O)O)C(=O)N[C@@H](CCC(=O)O)C(=O)N[C@@H](CCC(=O)O)C(=O)N[C@@H](CC(C)C)C(=O)N[C@@H](CCCCN)C(=O)N[C@@H](CCCCN)C(N)=O (Ac-WEEWDKKIEEYTKKIEELIKKSEEKQKKNEEELKK-NH2) | 69.2 | 2.7 | 4.8 |
| CC[C@H](C)[C@H](NC(=O)[C@H](CC(C)C)NC(=O)[C@H](CCC(=O)O)NC(=O)[C@H](CCC(=O)O)NC(=O)[C@@H](NC(=O)[C@H](CCCCN)NC(=O)[C@H](CCCCN)NC(=O)[C@@H](NC(=O)[C@H](Cc1ccc(O)cc1)NC(=O)[C@H](CCC(=O)O)NC(=O)[C@H](CCC(=O)O)NC(=O)[C@@H](NC(=O)[C@H](CCCCN)NC(=O)[C@H](CCCCN)NC(=O)[C@H](CC(=O)O)NC(=O)[C@H](Cc1c[nH]c2ccccc12)NC(=O)[C@H](CCC(=O)O)NC(=O)[C@H](CCC(=O)O)NC(=O)[C@H](Cc1c[nH]c2ccccc12)NC(C)=O)[C@@H](C)CC)[C@@H](C)O)[C@@H](C)CC)C(=O)N[C@@H](CCCCN)C(=O)N[C@@H](CCCCN)C(=O)N[C@@H](CO)C(=O)N[C@@H](CCC(=O)O)C(=O)N[C@@H](CCC(=O)O)C(=O)N[C@H](C(=O)N[C@@H](CCC(N)=O)C(=O)N[C@@H](CCCCN)C(=O)N[C@@H](CCCCN)C(=O)N[C@@H](CC(N)=O)C(=O)N[C@@H](CCC(=O)O)C(=O)N[C@@H](CCC(=O)O)C(=O)N[C@@H](CCC(=O)O)C(=O)N[C@@H](CC(C)C)C(=O)N[C@@H](CCCCN)C(=O)N[C@@H](CCCCN)C(N)=O)C(C)C (Ac-WEEWDKKIEEYTKKIEELIKKSEEVQKKNEEELKK-NH2) | 77.7 | 2.2 | 6.2 |
